The values that follow come from PubChem BioAssay (NCI).

Each structure is given as a SMILES string.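 Five concentrations, 48 hours, 96-well plates. TGI is the concentration that stops growth completely.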

The test system of the first assay is HCT-116 colon. Description: DTP human tumour cell line panel, 48 h.
Turning to `CC(C)OP(=O)(OC(C)C)C(C(C)C)N(C)/C(N)=N\C1=NC(C(F)(F)F)(C(F)(F)F)N=C(C(C(F)(F)F)C(F)(F)F)O1` (configuration not stated), the concentration for total growth inhibition (TGI) (commonly the concentration giving total growth inhibition) worked out at 6.6 µM.
On the same count and under the same terms, the figure for `O=C(c1ccc(Cl)cc1Cl)N(C(=O)N1CCC(c2ccccc2)CC1)c1ccccc1` is more than 100 µM.
Still for that read-out and setting: the figure for `NCCCCNCCCN1CC1` is more than 100 µM; for `O=C1CSC2(CC(/C=C/c3ccccc3O)=NN2c2cccc(S(=O)(=O)O)c2)N1c1nc2ccccc2s1` (configuration not stated) it is more than 100 µM; for `O=c1n(/N=C/c2ccccc2)c(=O)n2n1C1C=CC2CC1` it is more than 100 µM.
As for `COc1cc(Br)c(OC)c2c(OC)cc(C)cc12`, the TGI is more than 100 µM.
Still for that read-out and setting: the figure for `CCOC(=O)/C(N=Nc1ccc(-n2c(C)nc3ccccc3c2=O)cc1)=C(/C)O` is more than 100 µM; for `COc1cc(OCc2ccc3nc(-c4ccccc4)c(N)nc3c2)cc(OC)c1OC` it is 21.1 µM.
Still for that read-out and setting: the figure for `CCc1nnc(CC)n1NCCCC(=O)O` is more than 100 µM.
The compound `CCOC(=O)C(c1c[nH]c2ccccc12)(c1c[nH]c2ccccc12)c1c[nH]c2ccccc12` came in with a TGI of more than 100 µM.
On to `O=C1NC(N2CCOCC2)=N/C1=C\c1cccs1`, for which the TGI was more than 100 µM.
On the same count and under the same terms, the figure for `O=c1[nH]c(=O)n(C2OC(CO)C(O)C(F)C2O)cc1F` (configuration not stated) is more than 100 µM.

The next assay has as its system MDA-MB-435. The assay is described as follows: DTP human tumour cell line panel, 48 h.
The compound `CC(C)OP(=O)(OC(C)C)C(C(C)C)N(C)/C(N)=N\C1=NC(C(F)(F)F)(C(F)(F)F)N=C(C(C(F)(F)F)C(F)(F)F)O1` (configuration not stated) came in with a TGI of 3.78 µM.
On the same count and under the same terms, the figure for `O=C(c1ccc(Cl)cc1Cl)N(C(=O)N1CCC(c2ccccc2)CC1)c1ccccc1` is more than 100 µM; for `NCCCCNCCCN1CC1` it is more than 94.6 µM; for `O=C1CSC2(CC(/C=C/c3ccccc3O)=NN2c2cccc(S(=O)(=O)O)c2)N1c1nc2ccccc2s1` (configuration not stated) it is 55.7 µM.
Compound `O=c1n(/N=C/c2ccccc2)c(=O)n2n1C1C=CC2CC1` showed a TGI of more than 100 µM.
Same read-out and setting: the figure for `COc1cc(Br)c(OC)c2c(OC)cc(C)cc12` is more than 100 µM.
Same read-out and setting: the figure for `CCOC(=O)/C(N=Nc1ccc(-n2c(C)nc3ccccc3c2=O)cc1)=C(/C)O` is 59.8 µM; for `COc1cc(OCc2ccc3nc(-c4ccccc4)c(N)nc3c2)cc(OC)c1OC` it is 51.2 µM.
Same read-out and setting: the value for `CCc1nnc(CC)n1NCCCC(=O)O` was more than 100 µM; that for `CCOC(=O)C(c1c[nH]c2ccccc12)(c1c[nH]c2ccccc12)c1c[nH]c2ccccc12` was 76.7 µM; that for `O=C1NC(N2CCOCC2)=N/C1=C\c1cccs1` was more than 100 µM.
Turning to `O=c1[nH]c(=O)n(C2OC(CO)C(O)C(F)C2O)cc1F` (configuration not stated), the TGI was more than 100 µM.

For another assay, the system named is SK-MEL-28 melanoma. The assay is described as follows: DTP human tumour cell line panel, 48 h.
`CC(C)OP(=O)(OC(C)C)C(C(C)C)N(C)/C(N)=N\C1=NC(C(F)(F)F)(C(F)(F)F)N=C(C(C(F)(F)F)C(F)(F)F)O1` (configuration not stated) displayed a TGI of 12.4 µM.
The same measure, in the same setting: the figure for `O=C(c1ccc(Cl)cc1Cl)N(C(=O)N1CCC(c2ccccc2)CC1)c1ccccc1` is more than 100 µM; for `NCCCCNCCCN1CC1` it is more than 26 µM.
For `O=C1CSC2(CC(/C=C/c3ccccc3O)=NN2c2cccc(S(=O)(=O)O)c2)N1c1nc2ccccc2s1` (configuration not stated), the TGI is more than 100 µM.
On the same count and under the same terms, the value for `O=c1n(/N=C/c2ccccc2)c(=O)n2n1C1C=CC2CC1` was more than 100 µM.
The compound `COc1cc(Br)c(OC)c2c(OC)cc(C)cc12` gave a TGI of more than 100 µM.
`CCOC(=O)/C(N=Nc1ccc(-n2c(C)nc3ccccc3c2=O)cc1)=C(/C)O` yielded a TGI of 71.6 µM.
For `COc1cc(OCc2ccc3nc(-c4ccccc4)c(N)nc3c2)cc(OC)c1OC`, the TGI stood at 49 µM. This TGI and that of the compound before are within 1.5-fold of each other.
The same measure, in the same setting: the figure for `CCc1nnc(CC)n1NCCCC(=O)O` is more than 100 µM; for `CCOC(=O)C(c1c[nH]c2ccccc12)(c1c[nH]c2ccccc12)c1c[nH]c2ccccc12` it is more than 100 µM.
Still for that read-out and setting: the value for `O=C1NC(N2CCOCC2)=N/C1=C\c1cccs1` was more than 100 µM; that for `O=c1[nH]c(=O)n(C2OC(CO)C(O)C(F)C2O)cc1F` (configuration not stated) was more than 100 µM.

A further assay has as its system KM12 colon. The assay is described as follows: DTP human tumour cell line panel, 48 h.
Regarding `CC(C)OP(=O)(OC(C)C)C(C(C)C)N(C)/C(N)=N\C1=NC(C(F)(F)F)(C(F)(F)F)N=C(C(C(F)(F)F)C(F)(F)F)O1` (configuration not stated), the TGI turned out to be 14 µM.
Same read-out and setting: the value for `O=C(c1ccc(Cl)cc1Cl)N(C(=O)N1CCC(c2ccccc2)CC1)c1ccccc1` was more than 100 µM.
The same measure, in the same setting: the figure for `NCCCCNCCCN1CC1` is 24.4 µM; for `O=C1CSC2(CC(/C=C/c3ccccc3O)=NN2c2cccc(S(=O)(=O)O)c2)N1c1nc2ccccc2s1` (configuration not stated) it is more than 100 µM; for `O=c1n(/N=C/c2ccccc2)c(=O)n2n1C1C=CC2CC1` it is more than 100 µM.
Still for that read-out and setting: the value for `COc1cc(Br)c(OC)c2c(OC)cc(C)cc12` was more than 100 µM.
The compound `CCOC(=O)/C(N=Nc1ccc(-n2c(C)nc3ccccc3c2=O)cc1)=C(/C)O` came in with a TGI of 37.4 µM.
Still for that read-out and setting: the figure for `COc1cc(OCc2ccc3nc(-c4ccccc4)c(N)nc3c2)cc(OC)c1OC` is 36.7 µM.
On the same count and under the same terms, the figure for `CCc1nnc(CC)n1NCCCC(=O)O` is more than 100 µM.
Consider `CCOC(=O)C(c1c[nH]c2ccccc12)(c1c[nH]c2ccccc12)c1c[nH]c2ccccc12`, for which the TGI is 98.7 µM.
Regarding `O=C1NC(N2CCOCC2)=N/C1=C\c1cccs1`, the TGI was more than 100 µM.

A further assay deals with SK-MEL-2 melanoma. The assay is described as follows: DTP human tumour cell line panel, 48 h.
Regarding `CC(C)OP(=O)(OC(C)C)C(C(C)C)N(C)/C(N)=N\C1=NC(C(F)(F)F)(C(F)(F)F)N=C(C(C(F)(F)F)C(F)(F)F)O1` (configuration not stated), the TGI was more than 100 µM.
Take `O=C(c1ccc(Cl)cc1Cl)N(C(=O)N1CCC(c2ccccc2)CC1)c1ccccc1`: the TGI was more than 100 µM.
Same read-out and setting: the figure for `O=C1CSC2(CC(/C=C/c3ccccc3O)=NN2c2cccc(S(=O)(=O)O)c2)N1c1nc2ccccc2s1` (configuration not stated) is more than 100 µM.
Same read-out and setting: the value for `O=c1n(/N=C/c2ccccc2)c(=O)n2n1C1C=CC2CC1` was more than 100 µM; that for `COc1cc(Br)c(OC)c2c(OC)cc(C)cc12` was more than 100 µM.
